Test systems include A549 NSCLC; CAKI-1 renal; CCRF-CEM leukemia; HS 578T breast; MALME-3M melanoma; TK-10 renal; UACC-257 melanoma; HCT-15 colon; SF-539 CNS.
Holding throughout (assay): inhibition of tumour cell growth, NCI panel, 48 h

Several values for one entry are separate records, joined by “and”; a condition that tells them apart may be missing. Equal values may be shown once.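 Tested at 5 concentrations; 48 h exposure; 96-well plates; endpoints linearly interpolated, else capped at highest concentration. At the GI50, growth is halved. TGI denotes the concentration required for complete inhibition of growth.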

For `Cc1c(NC(=O)CCl)c(=O)oc2c(C)c3occc(=O)c3cc12`, the TGI amounted to 35 µM in the assay with A549 NSCLC; 25.3 µM in the assay on CAKI-1 renal; 41.8 µM in the assay with CCRF-CEM leukemia; 59.6 µM in the assay on HS 578T breast; 44.4 µM with MALME-3M melanoma; 42.6 µM with TK-10 renal. In the assay on UACC-257 melanoma, this compound registered a TGI of 34 µM.
For the compound `CN(C)CCNC(=O)c1cccc2nc3ccc4cccnc4c3nc12`, the TGI in the assay on A549 NSCLC turned out to be 9.65 µM; in the assay with CAKI-1 renal, 6.37 µM; with CCRF-CEM leukemia it was 13.1 µM; in the assay on HCT-15 colon it was 2.33 µM; with SF-539 CNS, 1.1 µM; with TK-10 renal, 0.688 µM. In the assay on UACC-257 melanoma, the TGI was determined as 1.63 µM.
For the compound `O=C1NC(=O)C(=Cc2c3ccccc3cc3ccccc23)C(=O)N1`, the TGI with A549 NSCLC, in the assay on CAKI-1 renal, in the assay with CCRF-CEM leukemia, with HCT-15 colon, with SF-539 CNS and with TK-10 renal was greater than 100 µM throughout.
Regarding `CC(C)(CN1CCOCC1)C(=O)/C=C/c1ccc(/C=C/C(=O)C(C)(C)CN2CCOCC2)cc1`, the TGI in the assay on A549 NSCLC came out at 7.42 µM; in the assay with CAKI-1 renal, 3.78 µM; with CCRF-CEM leukemia it was 4.77 µM; with HCT-15 colon it was 4.03 µM; with SF-539 CNS, 3.69 µM; in the assay with TK-10 renal, 3.62 µM.
As to `Cc1cc2c(c3nocc13)C(=O)c1ccccc1C2=O`, the TGI with A549 NSCLC, in the assay with CAKI-1 renal, with CCRF-CEM leukemia, in the assay on HCT-15 colon, with MALME-3M melanoma and in the assay with SF-539 CNS was greater than 100 µM throughout. Moreover, the TGI in the assay with TK-10 renal and in the assay on UACC-257 melanoma was greater than 100 µM throughout.
As to `Cc1cc(C)nc(NS(=O)(=O)c2ccc(Nc3c4ccccc4nc4c(C(=O)Nc5ccc(S(=O)(=O)Nc6cc(C)on6)cc5)ccc(Cl)c34)cc2)n1`, the TGI was 71 µM in the assay with CCRF-CEM leukemia; greater than 100 µM in the assay on HCT-15 colon; 86.5 µM in the assay on MALME-3M melanoma; 53 µM in the assay on SF-539 CNS; greater than 100 µM in the assay on TK-10 renal; 91.3 µM in the assay with UACC-257 melanoma.
With `COc1cccc2c1C(=O)c1c(O)c3c(c(O)c1C2=O)C[C@@](O)(C(C)=O)C[C@@H]3OC1CC([N+]([O-])(Cc2ccccc2)Cc2ccccc2)C(O)C(C)O1` (some centres not stated), the TGI with A549 NSCLC stood at 5.18 µM; in the assay on CAKI-1 renal, 2.47 µM; in the assay on HCT-15 colon, 2.76 µM; with SF-539 CNS, 2.62 µM; with TK-10 renal, 3.37 µM; with UACC-257 melanoma, 3.17 µM.
Consider `COc1ccc2c3c(c(C(=O)O)oc13)CCC2`, for which the TGI in the assay with A549 NSCLC, in the assay on CCRF-CEM leukemia, in the assay on HCT-15 colon, in the assay with MALME-3M melanoma, with SF-539 CNS and in the assay with TK-10 renal was greater than 100 µM throughout. In the assay on UACC-257 melanoma, this compound displayed a TGI greater than 100 µM.
For `COC1CC(C)C(OC)c2cc(O)cc(c2O)NC(=O)/C(C)=C/C=C\C(C)C(OC(N)=O)/C(C)=C\C(C)C1OC` (configuration not stated), the GI50 is 435 nM and 1840 nM in the assay with A549 NSCLC; 6.93 µM and 7.45 µM in the assay with CAKI-1 renal; 35.6 nM and 148 nM in the assay with CCRF-CEM leukemia; 4910 nM in the assay with HCT-15 colon; 511 nM and 758 nM with HS 578T breast; 749 nM and 503 nM in the assay on MALME-3M melanoma. In addition, the GI50 in the assay with SF-539 CNS is 271 nM; in the assay on TK-10 renal, 2920 nM; in the assay on UACC-257 melanoma, 561 nM and 693 nM. The TGI in the assay with A549 NSCLC is 27.6 µM and 21.1 µM; in the assay with CAKI-1 renal, 16.3 µM and 14.4 µM; in the assay on HCT-15 colon, 11.9 µM and 12.7 µM; in the assay on HS 578T breast, 20.8 µM and 6.92 µM; with MALME-3M melanoma, 4.89 µM and 7.39 µM; with SF-539 CNS, 10.2 µM and 8.61 µM. For the same compound, the TGI with TK-10 renal is 21.1 µM and 10.6 µM; in the assay with UACC-257 melanoma, 10.3 µM and 10.5 µM.
For the compound `O=C1Nc2ccccc2/C1=C\c1cccc(/C=C2/C(=O)Nc3ccccc32)n1`, the GI50 is 0.338 µM in the assay on CAKI-1 renal; 356 nM with CCRF-CEM leukemia; 219 nM in the assay on HCT-15 colon; 294 nM with HS 578T breast; 300 nM with MALME-3M melanoma; 966 nM with SF-539 CNS. Moreover, the GI50 in the assay with TK-10 renal is 416 nM; in the assay with UACC-257 melanoma, 241 nM. In addition, the TGI was 1.27 µM with CAKI-1 renal; greater than 100 µM in the assay on CCRF-CEM leukemia; 0.618 µM with HCT-15 colon; 1.31 µM with HS 578T breast; 1.08 µM in the assay with MALME-3M melanoma; 2.23 µM in the assay on SF-539 CNS. For the same compound, the TGI stood at 1.41 µM with TK-10 renal and 0.633 µM with UACC-257 melanoma.
As to `CC1(C)OC2CC3COC(=O)C3CC2O1` (configuration not stated), the TGI with A549 NSCLC, in the assay on CAKI-1 renal, with CCRF-CEM leukemia, in the assay on HCT-15 colon, in the assay with MALME-3M melanoma and in the assay with SF-539 CNS was greater than 100 µM in each case. In addition, the TGI in the assay on TK-10 renal and in the assay on UACC-257 melanoma was greater than 100 µM each time.
On to `CSC(=Nc1ccccc1Cl)NC(=O)c1ccc(Br)cc1`, for which the TGI is greater than 100 µM with A549 NSCLC; 97.4 µM with CAKI-1 renal; greater than 100 µM with HCT-15 colon; greater than 100 µM in the assay with MALME-3M melanoma; greater than 100 µM with SF-539 CNS; greater than 100 µM in the assay with TK-10 renal. The compound further registered a TGI in the assay on UACC-257 melanoma greater than 100 µM.
For `CCN(CCCl)CCCCCNc1c2ccccc2nc2ccc(OC)cc12`, the TGI is 4.4 µM in the assay with A549 NSCLC; 16.7 µM with CAKI-1 renal; 2.78 µM with CCRF-CEM leukemia; 10.9 µM with HCT-15 colon; 5.93 µM in the assay on MALME-3M melanoma; 2.65 µM in the assay on SF-539 CNS. Besides, the TGI is 44.3 µM with TK-10 renal and 10.8 µM in the assay on UACC-257 melanoma.
Turning to `NCCOCn1cc(Cc2cccc(OCc3ccccc3)c2)c(=O)[nH]c1=O`, the TGI with A549 NSCLC, in the assay with CCRF-CEM leukemia, in the assay with HCT-15 colon, in the assay with SF-539 CNS and in the assay on TK-10 renal was greater than 100 µM throughout.
Turning to `CCCN(CCC)CCc1cc(C(C)=O)n(S(=O)(=O)c2ccc(C)cc2)c1`, the TGI in the assay with A549 NSCLC, in the assay with CAKI-1 renal, with CCRF-CEM leukemia, with HCT-15 colon, in the assay with MALME-3M melanoma and in the assay on SF-539 CNS was greater than 100 µM throughout. Besides, the TGI in the assay with TK-10 renal and in the assay on UACC-257 melanoma was greater than 100 µM each time.

Source of the values: PubChem BioAssay (NCI).
